Measurements from US10844062B2, “Pyridine derivative inhibiting RAF kinase and vascular endothelial growth factor receptor, method for preparing same, pharmaceutical composition containing same, and use thereof” (SAMJIN PHARMACEUTICAL CO., LTD., priority 2016, dated 2020).
pIC50: −log10 of the molar value. Like-named read-outs stand apart in the source and are kept apart here.

How the values were obtained:
[1] = tested on: A-375P BRAF V600E (melanoma); test: MTT assay; format: cell-based; settings: A375P, 72 h; Table 5; 3 days incubation
Outline: (§1)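 Cells were seeded at line-dependent density and stabilised overnight at 37 °C, then exposed to compounds for 3 days at 37 °C. MTT was then added for 2 h and the formazan dissolved in DMSO.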

[2] = tested on: HUVEC (VEGF); test: MTT assay; format: cell-based; settings: Homo sapiens, 72 h, Table 5, 3 days incubation
Outline: as §1

[3] = tested on: LS513 KRAS G12V (colon); test: MTT assay; format: cell-based; settings: Homo sapiens, LS-513, 72 h, 3 days incubation, read-out: MTT assay IC50 KRAS mutant (Colon) LS513 KRAS G12V
Outline: as §1

[4] = tested on: HCT-116 KRAS G13D (colon); test: MTT assay; format: cell-based; settings: Homo sapiens, HCT-116, 72 h; Table 5; 3 days incubation; read-out: MTT assay IC50 KRAS mutant (Colon) HCT-116 KRAS G13D
Outline: as §1

[5] = tested on: WiDR BRAF V600E (colon); test: MTT assay; format: cell-based; settings: Homo sapiens, 72 h, Table 5, 3 days incubation, read-out: MTT assay IC50 BRAF mutant (Colon) WiDR BRAF V600E
Outline: as §1

[6] = tested on: SW620 KRAS G12V (colon); test: MTT assay; format: cell-based; settings: Homo sapiens, SW-620, 72 h; Table 5; 3 days incubation; read-out: MTT assay IC50 KRAS mutant (Colon) SW620 KRAS G12V
Outline: as §1

[7] = biological target: B-Raf V600E (Homo sapiens (Human), UniProt P15056, V600E); test: Raf kinase inhibitory activity (Raf/MEK1/MAPK2 cascade, MBP phosphorylation, 32P); format: biochemical
Chain of B-Raf V600E (P15056 whole entry V600E): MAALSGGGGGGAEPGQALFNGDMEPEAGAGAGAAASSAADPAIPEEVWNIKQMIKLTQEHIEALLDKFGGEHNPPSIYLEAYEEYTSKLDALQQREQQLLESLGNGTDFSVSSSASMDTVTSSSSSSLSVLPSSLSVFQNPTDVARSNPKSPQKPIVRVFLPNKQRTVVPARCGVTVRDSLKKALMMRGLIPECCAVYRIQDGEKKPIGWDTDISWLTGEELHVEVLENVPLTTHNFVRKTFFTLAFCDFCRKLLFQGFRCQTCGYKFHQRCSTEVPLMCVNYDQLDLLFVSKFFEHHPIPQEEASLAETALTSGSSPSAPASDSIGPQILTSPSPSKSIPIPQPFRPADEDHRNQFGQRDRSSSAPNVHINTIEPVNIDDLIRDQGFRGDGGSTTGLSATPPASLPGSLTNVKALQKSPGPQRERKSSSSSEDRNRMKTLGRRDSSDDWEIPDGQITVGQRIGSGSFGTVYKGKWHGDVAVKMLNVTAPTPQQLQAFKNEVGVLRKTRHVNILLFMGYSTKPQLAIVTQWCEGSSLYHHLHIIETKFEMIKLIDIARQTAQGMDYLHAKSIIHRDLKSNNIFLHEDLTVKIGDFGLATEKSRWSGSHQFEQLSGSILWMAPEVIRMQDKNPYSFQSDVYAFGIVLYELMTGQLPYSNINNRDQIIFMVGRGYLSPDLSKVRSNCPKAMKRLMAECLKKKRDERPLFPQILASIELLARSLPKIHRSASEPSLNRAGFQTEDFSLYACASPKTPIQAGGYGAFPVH
Protocol: (§2) In order to examine the inhibitory activities of the compounds of the present invention against Raf kinases (B-Raf, C-Raf, B-Raf^V600E), the following experiment was performed.
(§3) (1) Consecutive Signal Transduction Reaction
(§4) To a centrifugation tube, 20 μl of a dilution solvent (20 mM MOPS, pH 7.2, 25 mM (3-glycerol phosphate, 5 mM EGTA, 1 mM sodium orthovanadate, 1 mM dithiothreitol) and 20 μl of a Mg/ATP mixture (500 μM ATP and 75 mM magnesium chloride) were added. Then, each of the derivative compounds of formula 1 was added. As a control, 1 ng of activated raf, 0.4 ng of inactivated MEK1 and 1 μg of inactivated MAPK2 were added without adding Example compounds. The solutions in the tube were concentrated at the bottom of the tube by centrifugation, and then allowed to react at 30° C. for 30 minutes, and 4 μl of the mixture solution was taken and used in the next experimental step.
(§5) (2) Phosphorylation of Substrate Protein MBP by MAPK2
(§6) To 4 μl of the mixture solution taken in (1), 10 μl of a dilution solvent, 20 μg of MBP as a substrate, and 10 μl of diluted [γ-32P]ATP (1 μCi/μL) were added. The solutions in the tube were concentrated at the bottom of the tube by centrifugation, and then allowed to react at 30° C. for 30 minutes. 25 μl of the reaction solution was carefully placed on the center of 2 cm×2 cm P81 filter paper for 30 seconds. Next, the filter paper was washed three times with 0.75% phosphoric acid solution for 10 minutes each time and washed once with acetone for 5 minutes. Next, the filter paper was transferred into a scintillation vial, and 5 ml of a scintillation cocktail was added thereto. Raf activity inhibition rate (IC50) was measured by reading the radioactivity with a scintillation counter in comparison with the control.

[8] = biological target: C-Raf (Homo sapiens (Human), UniProt P04049); test: as above; format: biochemical
Chain of C-Raf (P04049 whole entry): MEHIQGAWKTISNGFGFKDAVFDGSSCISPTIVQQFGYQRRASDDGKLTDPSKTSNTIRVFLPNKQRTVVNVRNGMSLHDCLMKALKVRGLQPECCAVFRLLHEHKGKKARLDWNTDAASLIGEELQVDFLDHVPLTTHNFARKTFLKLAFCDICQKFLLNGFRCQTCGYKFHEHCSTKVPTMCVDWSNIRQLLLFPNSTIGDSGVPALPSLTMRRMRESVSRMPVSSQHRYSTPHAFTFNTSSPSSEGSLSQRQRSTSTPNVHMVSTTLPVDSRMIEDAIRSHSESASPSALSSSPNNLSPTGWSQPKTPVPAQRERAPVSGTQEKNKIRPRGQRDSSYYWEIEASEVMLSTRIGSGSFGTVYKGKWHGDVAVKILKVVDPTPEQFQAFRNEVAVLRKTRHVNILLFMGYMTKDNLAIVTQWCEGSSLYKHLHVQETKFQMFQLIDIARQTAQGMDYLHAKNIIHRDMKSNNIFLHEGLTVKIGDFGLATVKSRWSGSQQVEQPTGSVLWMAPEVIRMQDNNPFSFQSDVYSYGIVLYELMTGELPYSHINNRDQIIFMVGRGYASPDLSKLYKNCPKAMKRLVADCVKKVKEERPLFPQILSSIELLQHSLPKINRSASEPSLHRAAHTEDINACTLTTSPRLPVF
Protocol: as §2, §3, §4, §5, §6

[9] = biological target: B-Raf (Homo sapiens (Human), UniProt P15056); test: as above; format: biochemical
Chain of B-Raf (P15056 whole entry): as the sequence (P15056 whole entry V600E) above, with E600V counted along it
Protocol: as §2, §3, §4, §5, §6

[10] = tested on: SK-MEL2 NRAS Q61R (melanoma); test: MTT assay; format: cell-based; settings: Homo sapiens, SK-MEL-2, 72 h; Table 5; 3 days incubation
Outline: as §1

[11] = tested on: LS513 human colorectal cancer cell line xenograft; test: Antitumor effect on human colorectal cancer LS513 cell line xenograft; format: in vivo, Balb/c nu/nu nude mice; settings: oral, twice a day, 14 days
From the text: In this experiment, 5 to 6-week-old female Balb/c nu/nu nude mice (weighed 18 to 20 g) were used. The mice were provided from Nara Biotech Co., Ltd. During the experiment, all the animals were housed on a mouse constant temperature/constant humidity shelf (Individually Ventilated Cages System, LAB & BIO).
Each cage (37.2 cm length×19.2 cm width×13.1 cm height) was sterilized with a sterilizer, and eight mice were received in each cage. The mice were maintained in a hygienic environment controlled to a temperature of 20 to 24° C. and a humidity of 40 to 70% with a 12-hr light/12-hr dark cycle. The mice were allowed to access sterilized feed and drinking water ad libitum. The care and treatment of these animals were carried out according to the Laboratory Animal Care Guidelines of Samjin Pharmaceutical Co., Ltd.
The mice were acclimated to the housing facility for 1 week, and then 0.1 mL of a cell suspension containing 1×10^7 cells was injected subcutaneously into the right flank of each mouse. After cell transplantation, the volume of the formed tumor was measured, and mice with formed tumors having a volume of 150 mm^3 or more were randomly divided into groups (each consisting of 7 to 8 animals) for treatment with the test compounds and a control. […] Administration of the drugs was continued for 14 days. […] At 3-day intervals from the starting day of the administration, the long axis and short axis of the tumor were measured with digital vernier calipers, and the tumor volume was calculated using the following equation and recorded: Tumor volume (TV)=Long axis×short axis^2/2.
Tumor growth inhibition for absolute tumor volume was calculated using the following equation. In the following equation, V0 is the tumor volume on the first day of drug administration (day 0), and Vt is the tumor volume after last drug administration.

[12] = tested on: LS513 human colorectal cancer cell line xenograft; test: as above; format: in vivo, Balb/c nu/nu nude mice; settings: oral
[13] = biological target: VEGFR-2 tyrosine kinase (KDR) (Homo sapiens (Human), UniProt P35968); test: VEGFR-2 tyrosine kinase inhibitory activity (ADP-Glo kinase assay); format: biochemical; settings: KDR 50 ng
Chain of VEGFR-2 tyrosine kinase (KDR) (P35968 20-1356): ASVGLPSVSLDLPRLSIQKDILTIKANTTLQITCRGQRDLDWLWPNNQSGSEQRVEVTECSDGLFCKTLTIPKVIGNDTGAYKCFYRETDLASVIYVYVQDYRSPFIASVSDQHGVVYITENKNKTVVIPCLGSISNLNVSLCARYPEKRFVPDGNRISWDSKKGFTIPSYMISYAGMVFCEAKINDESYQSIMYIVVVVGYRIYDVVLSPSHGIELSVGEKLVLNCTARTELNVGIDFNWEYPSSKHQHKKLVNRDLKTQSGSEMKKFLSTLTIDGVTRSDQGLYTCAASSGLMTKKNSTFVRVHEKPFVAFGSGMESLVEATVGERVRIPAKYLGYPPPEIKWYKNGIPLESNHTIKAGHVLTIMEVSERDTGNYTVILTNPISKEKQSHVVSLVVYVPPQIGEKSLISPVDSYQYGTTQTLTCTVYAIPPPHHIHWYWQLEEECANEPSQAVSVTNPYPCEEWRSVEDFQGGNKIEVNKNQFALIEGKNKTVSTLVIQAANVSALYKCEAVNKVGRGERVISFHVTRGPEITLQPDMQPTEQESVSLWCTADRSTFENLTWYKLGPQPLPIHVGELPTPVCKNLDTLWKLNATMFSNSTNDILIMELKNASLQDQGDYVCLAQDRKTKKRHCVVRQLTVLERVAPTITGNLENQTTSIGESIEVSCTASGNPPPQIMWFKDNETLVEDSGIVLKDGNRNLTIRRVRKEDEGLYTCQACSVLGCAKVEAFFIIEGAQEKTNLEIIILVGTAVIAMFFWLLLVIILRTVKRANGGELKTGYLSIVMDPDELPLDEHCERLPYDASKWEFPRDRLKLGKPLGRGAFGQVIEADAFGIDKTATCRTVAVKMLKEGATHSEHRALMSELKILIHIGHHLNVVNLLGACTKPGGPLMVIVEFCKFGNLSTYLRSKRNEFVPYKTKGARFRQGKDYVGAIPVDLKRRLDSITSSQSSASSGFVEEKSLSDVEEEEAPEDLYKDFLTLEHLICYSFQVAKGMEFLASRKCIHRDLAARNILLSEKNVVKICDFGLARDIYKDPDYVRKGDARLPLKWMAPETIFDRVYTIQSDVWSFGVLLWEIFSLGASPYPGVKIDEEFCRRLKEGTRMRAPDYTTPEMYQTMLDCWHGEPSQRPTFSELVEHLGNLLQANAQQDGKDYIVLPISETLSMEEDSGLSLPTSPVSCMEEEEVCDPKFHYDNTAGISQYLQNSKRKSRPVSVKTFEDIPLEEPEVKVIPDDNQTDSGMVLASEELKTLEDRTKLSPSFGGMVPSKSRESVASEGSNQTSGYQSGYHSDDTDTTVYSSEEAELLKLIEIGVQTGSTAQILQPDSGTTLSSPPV
Protocol: The inhibitory activities of the compounds of the present invention against VEGFR-2 tyrosine kinase were analyzed using ADP-Glo™ kinase assay kit commercially available from Promega. In the principle of the analysis, kinase, a substrate and ATP are reacted with one another, and then ADP-Glo™ solution is added thereto. The ATP is removed while leaving the produced ADP, and the remaining ADP is converted to ATP by use of a kinase detection reagent, and the ATP is reacted with a luciferin substrate, and the emitted luminescence is measured.
Reaction time: 30 min (30° C.)/40 min/30 min;

| pIC50 [13] | SMILES | pIC50 [1] | pIC50 [2] | pIC50 ([3]; Table 4) | pIC50 ([3]; Table 5) | pIC50 [4] | pIC50 [5] | pIC50 [6] | pIC50 [7] | pIC50 [8] | pIC50 [9] | pIC50 [10] | antitumor effect (tumor growth inhibition) compared to the control group ([11]; 30 mg/kg) | antitumor effect (tumor growth inhibition) compared to the control group ([11]; 60 mg/kg) | antitumor effect (tumor growth inhibition) compared to the vehicle control ([11]; 60 mg/kg or 30 mg/kg (dose not specified per compound)) | antitumor effect (tumor growth inhibition) ([12]; 50 mg/kg, once a day, 13 days) | antitumor effect (tumor growth inhibition) ([12]; 12.5 mg/kg, 21 days) | antitumor effect (tumor growth inhibition) ([12]; 25 mg/kg, 21 days) | antitumor effect (tumor growth inhibition) ([12]; 50 mg/kg, 21 days) |
| --- | --- | --- | --- | --- | --- | --- | --- | --- | --- | --- | --- | --- | --- | --- | --- | --- | --- | --- | --- |
|  | O=C(Nc1ccc(F)c(Nc2ncccc2-c2ncnc3[nH]cnc23)c1F)c1cccc(C(F)(F)F)c1 [Example 1, N-(3-(3-(9H-purin-6-yl)pyridin-2-ylamino)-2,4-difluorophenyl)-3-(trifluoromethyl)benzamide] | 7.02 | 7.66 | 5.93 | 6.56 | 7.00 | 6.94 | 6.07 | 7.80 | 7.64 | 7.47 |  |  |  |  |  |  |  |  |
|  | CC(C)(C#N)c1cccc(C(=O)Nc2ccc(F)c(Nc3ncccc3-c3ncnc4[nH]cnc34)c2F)c1 [Example 9, N-(3-(3-(9H-purin-6-yl)pyridin-2-ylamino)-2,4-difluorophenyl)-3-(2-cyanopropan-2-yl)benzamide] | 7.40 | 7.36 | 6.18 | 6.86 | 7.12 | 7.24 | 6.19 | 9.70 | 9.22 | 8.70 | 6.97 |  |  |  |  |  |  |  |
|  | CC(C)(C#N)c1cccc(C(=O)Nc2cc(Nc3ncccc3-c3ncnc4[nH]cnc34)ccc2F)c1 [Example 21, N-(5-(3-(9H-purin-6-yl)pyridin-2-ylamino)-2-fluorophenyl)-3-(2-cyanopropan-2-yl)benzamide] | 7.62 | 7.40 | 6.48 | 6.80 | 7.20 | 7.55 | 6.60 | 8.00 | 8.00 | 7.68 | 6.89 | about 66.7% | 90.3% |  |  |  |  |  |
|  | CC(C)(C#N)c1cccc(C(=O)Nc2cccc(Nc3ncccc3-c3ncnc4[nH]cnc34)c2)c1 [Example 23, N-(3-(3-(9H-purin-6-yl)pyridin-2-ylamino)phenyl)-3-(2-cyanopropan-2-yl)benzamide] | 7.92 | 7.55 | 6.16 | 7.02 | 7.30 | 7.21 | 6.49 | 8.15 | 8.10 | 7.77 | 7.24 |  |  |  |  |  |  |  |
|  | O=C(Nc1cc(Nc2ncccc2-c2ncnc3[nH]cnc23)ccc1F)c1cccc(C(F)(F)F)c1 [Example 30, N-(5-(3-(9H-Purin-6-Yl)Pyridin-2-Ylamino)-2-Fluorophenyl)-3-(Trifluoromethyl)Benzamide] | 6.61 | 7.89 | 6.84 | 7.10 | 6.84 | 6.20 | 6.06 | 8.28 | 9.15 | 8.57 | 6.91 | 76.9% | 88.7% |  |  |  |  |  |
|  | O=C(Nc1cc(Nc2ncccc2-c2ncnc3[nH]cnc23)ccc1F)c1cc(F)cc(C(F)(F)F)c1 [Example 36, N-(5-(3-(9H-Purin-6-Yl)Pyridin-2-Ylamino)-2-Fluorophenyl)-3-Fluoro-5-(Trifluoromethyl)Benzamide] | 6.57 | 7.82 | 6.60 | 6.90 | 6.93 | 6.19 | 6.17 | 7.52 | 7.39 | 7.15 | 6.41 |  |  | 78.5% |  |  |  |  |
|  | COc1ccc(C(=O)Nc2ccc(F)c(Nc3ncccc3-c3ncnc4[nH]cnc34)c2F)cc1 [Example 53, N-(3-(3-(9H-Purin-6-Yl)Pyridin-2-Ylamino)-2,4-Difluorophenyl)-4-Methoxybenzamide] | 8.40 | 8.24 | < 5.00 | 7.54 | 7.77 | 6.41 | 6.74 | 8.22 | 8.15 | 7.85 | 7.46 |  |  |  |  |  |  |  |
|  | O=C(Nc1cc(Nc2ncccc2-c2ncnc3[nH]cnc23)ccc1F)c1cc(C(F)(F)F)cc(C(F)(F)F)c1 [Example 65, N-2-Fluoro-5-[3-(9H-Purin-6-Yl)Pyridin-2-Ylamino)Phenyl-3,5-Bis(Trifluoromethyl)Benzamide] |  | 6.07 | 7.00 | 6.49 | 6.68 | 6.61 | 6.15 | 6.73 | 6.59 | 6.48 |  |  |  |  | 95.42% |  |  |  |
| 5.80 | Cc1ccc(NC(=O)c2cccc(C(F)(F)F)c2)cc1Nc1ncccc1-c1ncnc2[nH]cnc12 [Example 71, N-4-Methyl-5-[3-(9H-Purin-6-Yl)Pyridin-2-Ylamino)Phenyl-3-Trifluoromethylbenzamide] |  |  | 6.25 |  |  |  |  |  |  |  |  |  |  |  |  |  |  |  |
|  | O=C(Nc1cc(Nc2ncccc2-c2ncnc3[nH]cnc23)ccc1F)c1cc(Cl)cc(C(F)(F)F)c1 [Example 135, N-5-[(3-(9H-purin-6-yl)pyridin-2-yl)amino]-2-fluorophenyl-3-chloro-5-(trifluoromethyl)benzamide] |  | 6.13 | 7.10 | 7.06 | 7.13 | 7.17 | 6.50 | 7.07 | 7.47 | 6.79 |  |  |  |  | 92.66% | 52.36% | 74.73% | 86.85% |
